# Data published in article doi:10.1101/2021.09.30.462449v1 (biorxiv, 2021).
# What was measured:
# Assay in all cases: biochemical
# Conditions in all cases: read-out: % inhibition mean (Lanthascreen)
# STK16 (PKL12) = STK16 (PKL12) (Homo sapiens, UniProt O75716)
# ACVR2B = ACVR2B (Homo sapiens, UniProt Q13705)
# LIMK1 = LIMK1 (Homo sapiens, UniProt P53667)
# SLK = SLK (Homo sapiens, UniProt Q9H2G2)
# MAP4K3 (GLK) = MAP4K3 (GLK) (Homo sapiens, UniProt Q8IVH8)
# PKMYT1 = PKMYT1 (Homo sapiens, UniProt Q99640)
# CDK14 (PFTK1)/cyclin Y = CDK14 (PFTK1)/cyclin Y (Homo sapiens, UniProt O94921)
# ACVR1 (ALK2) R206H = ACVR1 (ALK2) R206H (Homo sapiens, UniProt Q04771, R206H)
# TAOK3 (JIK) = TAOK3 (JIK) (Homo sapiens, UniProt Q9H2K8)
# ERN1 = ERN1 (Homo sapiens, UniProt O75460)
# NUAK2 = NUAK2 (Homo sapiens, UniProt Q9H093)
# NUAK2, sequence (Q9H093 whole entry): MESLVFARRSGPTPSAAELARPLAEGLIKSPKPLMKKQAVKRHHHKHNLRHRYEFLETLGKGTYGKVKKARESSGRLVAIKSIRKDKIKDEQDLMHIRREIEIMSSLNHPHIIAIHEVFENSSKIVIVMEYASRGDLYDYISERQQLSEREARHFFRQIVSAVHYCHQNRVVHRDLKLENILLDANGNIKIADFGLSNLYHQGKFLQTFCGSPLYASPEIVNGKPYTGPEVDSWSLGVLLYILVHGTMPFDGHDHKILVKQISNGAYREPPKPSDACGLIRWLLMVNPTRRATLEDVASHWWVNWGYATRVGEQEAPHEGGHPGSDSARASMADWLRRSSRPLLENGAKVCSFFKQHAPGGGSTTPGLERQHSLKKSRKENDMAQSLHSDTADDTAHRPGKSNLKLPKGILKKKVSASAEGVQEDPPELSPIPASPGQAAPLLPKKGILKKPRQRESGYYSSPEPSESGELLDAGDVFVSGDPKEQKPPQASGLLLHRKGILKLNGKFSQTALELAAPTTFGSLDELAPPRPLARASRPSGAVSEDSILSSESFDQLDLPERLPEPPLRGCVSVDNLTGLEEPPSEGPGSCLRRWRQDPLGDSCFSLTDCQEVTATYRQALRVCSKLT
# CDK2/cyclin A1 = CDK2/cyclin A1 (Homo sapiens, UniProt P24941)
# ZAK = ZAK (Homo sapiens, UniProt Q9NYL2)
# MAP3K2 (MEKK2) = MAP3K2 (MEKK2) (Homo sapiens, UniProt Q9Y2U5)
# MAP3K2 (MEKK2), sequence (Q9Y2U5 whole entry): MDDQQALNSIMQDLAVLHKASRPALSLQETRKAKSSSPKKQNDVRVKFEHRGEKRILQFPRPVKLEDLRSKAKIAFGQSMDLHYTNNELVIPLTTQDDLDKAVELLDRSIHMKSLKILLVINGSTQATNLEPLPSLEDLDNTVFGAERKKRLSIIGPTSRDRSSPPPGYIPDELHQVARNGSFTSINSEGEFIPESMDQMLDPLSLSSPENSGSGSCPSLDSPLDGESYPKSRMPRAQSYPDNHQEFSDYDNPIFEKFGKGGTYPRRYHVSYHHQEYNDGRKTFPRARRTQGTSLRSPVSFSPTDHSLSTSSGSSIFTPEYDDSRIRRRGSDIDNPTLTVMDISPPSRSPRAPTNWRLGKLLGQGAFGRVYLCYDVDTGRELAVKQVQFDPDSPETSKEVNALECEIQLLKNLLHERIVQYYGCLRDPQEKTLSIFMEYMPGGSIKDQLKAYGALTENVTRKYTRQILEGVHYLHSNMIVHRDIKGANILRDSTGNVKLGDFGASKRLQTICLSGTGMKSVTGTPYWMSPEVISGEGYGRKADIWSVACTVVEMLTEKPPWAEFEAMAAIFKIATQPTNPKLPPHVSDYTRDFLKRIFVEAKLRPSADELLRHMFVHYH
# WEE1 = WEE1 (Homo sapiens, UniProt P30291)
# MYO3B (MYO3 beta) = MYO3B (MYO3 beta) (Homo sapiens, UniProt Q8WXR4)
# MAP3K3 (MEKK3) = MAP3K3 (MEKK3) (Homo sapiens, UniProt Q99759)
# MAP3K3 (MEKK3), sequence (Q99759 whole entry): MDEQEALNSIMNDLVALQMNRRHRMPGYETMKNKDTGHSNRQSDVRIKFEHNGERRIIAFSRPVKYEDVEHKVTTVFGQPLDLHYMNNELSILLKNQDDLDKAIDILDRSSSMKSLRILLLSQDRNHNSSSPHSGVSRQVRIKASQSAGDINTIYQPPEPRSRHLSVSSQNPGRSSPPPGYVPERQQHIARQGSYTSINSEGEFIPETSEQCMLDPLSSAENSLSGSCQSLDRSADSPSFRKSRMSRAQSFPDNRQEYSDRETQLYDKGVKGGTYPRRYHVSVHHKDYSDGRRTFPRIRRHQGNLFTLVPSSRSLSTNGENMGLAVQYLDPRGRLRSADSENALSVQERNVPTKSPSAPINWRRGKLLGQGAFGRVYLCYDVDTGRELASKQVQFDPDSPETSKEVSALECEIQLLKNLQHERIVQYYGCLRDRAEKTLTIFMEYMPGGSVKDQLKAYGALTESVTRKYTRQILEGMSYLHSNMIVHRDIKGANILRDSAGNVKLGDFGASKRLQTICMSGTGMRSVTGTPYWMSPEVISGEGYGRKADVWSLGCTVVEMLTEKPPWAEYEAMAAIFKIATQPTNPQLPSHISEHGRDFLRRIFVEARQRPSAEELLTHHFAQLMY
# AMPK (A2/B2/G2) = AMPK (A2/B2/G2) (Homo sapiens, UniProt P54646)
# ALK R1275Q = ALK R1275Q (Homo sapiens, UniProt Q9UM73, R1275Q)
# STK32C (YANK3) = STK32C (YANK3) (Homo sapiens, UniProt Q86UX6)
# CAMKK1 (CAMKKA) = CAMKK1 (CAMKKA) (Homo sapiens, UniProt Q8N5S9)
# CAMKK1 (CAMKKA), sequence (Q8N5S9 whole entry): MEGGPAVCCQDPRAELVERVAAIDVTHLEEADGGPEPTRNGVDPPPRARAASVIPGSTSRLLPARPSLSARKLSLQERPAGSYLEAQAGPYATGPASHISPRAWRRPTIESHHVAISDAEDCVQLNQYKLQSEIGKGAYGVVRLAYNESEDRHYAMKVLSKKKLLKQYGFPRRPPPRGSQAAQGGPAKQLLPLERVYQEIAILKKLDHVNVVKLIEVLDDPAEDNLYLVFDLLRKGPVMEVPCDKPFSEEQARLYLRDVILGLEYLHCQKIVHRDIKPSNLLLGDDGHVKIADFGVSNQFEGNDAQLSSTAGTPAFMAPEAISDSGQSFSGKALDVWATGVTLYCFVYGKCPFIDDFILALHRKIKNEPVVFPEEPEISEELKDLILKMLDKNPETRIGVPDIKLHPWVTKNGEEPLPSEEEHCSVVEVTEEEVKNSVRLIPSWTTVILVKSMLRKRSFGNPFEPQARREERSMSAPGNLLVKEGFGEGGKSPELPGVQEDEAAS
# ABL1 H396P = ABL1 H396P (Homo sapiens, UniProt P00519, H396P)
# RET V804M = RET V804M (Homo sapiens, UniProt P07949, V804M)
# RET V804M, sequence (P07949 whole entry V804M): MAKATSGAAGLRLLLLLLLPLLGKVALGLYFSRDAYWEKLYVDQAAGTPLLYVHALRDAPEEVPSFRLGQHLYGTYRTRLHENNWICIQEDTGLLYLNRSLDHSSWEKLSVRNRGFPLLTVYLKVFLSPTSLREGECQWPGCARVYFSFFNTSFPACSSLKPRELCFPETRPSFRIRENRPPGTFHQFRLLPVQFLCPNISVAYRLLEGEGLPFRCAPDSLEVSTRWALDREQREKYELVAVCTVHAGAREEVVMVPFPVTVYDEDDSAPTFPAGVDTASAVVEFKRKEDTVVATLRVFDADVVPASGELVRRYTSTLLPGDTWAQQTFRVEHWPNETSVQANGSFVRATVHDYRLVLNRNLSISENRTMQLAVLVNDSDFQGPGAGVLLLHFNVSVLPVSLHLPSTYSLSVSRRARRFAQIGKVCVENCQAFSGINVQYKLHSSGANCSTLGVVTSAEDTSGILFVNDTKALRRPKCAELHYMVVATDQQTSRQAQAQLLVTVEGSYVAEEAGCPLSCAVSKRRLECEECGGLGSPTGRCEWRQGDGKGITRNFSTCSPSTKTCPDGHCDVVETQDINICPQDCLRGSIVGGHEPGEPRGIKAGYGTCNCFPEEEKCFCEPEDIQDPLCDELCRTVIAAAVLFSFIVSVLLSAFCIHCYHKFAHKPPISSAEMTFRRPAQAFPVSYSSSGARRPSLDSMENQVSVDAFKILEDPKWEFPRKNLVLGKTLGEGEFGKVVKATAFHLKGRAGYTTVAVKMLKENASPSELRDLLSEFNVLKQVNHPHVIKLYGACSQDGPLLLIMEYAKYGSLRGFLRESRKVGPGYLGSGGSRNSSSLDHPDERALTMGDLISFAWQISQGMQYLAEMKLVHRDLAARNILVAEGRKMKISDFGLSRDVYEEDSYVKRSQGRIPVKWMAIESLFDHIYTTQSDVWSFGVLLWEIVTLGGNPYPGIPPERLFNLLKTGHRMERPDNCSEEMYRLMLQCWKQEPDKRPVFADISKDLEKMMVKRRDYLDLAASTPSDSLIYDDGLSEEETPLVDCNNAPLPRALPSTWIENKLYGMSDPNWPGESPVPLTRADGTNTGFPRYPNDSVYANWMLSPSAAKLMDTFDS
# DYRK2 = DYRK2 (Homo sapiens, UniProt Q92630)
# ULK2 = ULK2 (Homo sapiens, UniProt Q8IYT8)
# CDK9/cyclin K = CDK9/cyclin K (Homo sapiens, UniProt P50750)
# CDC7/DBF4 = CDC7/DBF4 (Homo sapiens, UniProt O00311)
# MYLK (MLCK) = MYLK (MLCK) (Homo sapiens, UniProt Q15746)
# ERN2 = ERN2 (Homo sapiens, UniProt Q76MJ5)
# ACVR2B, sequence (Q13705 whole entry): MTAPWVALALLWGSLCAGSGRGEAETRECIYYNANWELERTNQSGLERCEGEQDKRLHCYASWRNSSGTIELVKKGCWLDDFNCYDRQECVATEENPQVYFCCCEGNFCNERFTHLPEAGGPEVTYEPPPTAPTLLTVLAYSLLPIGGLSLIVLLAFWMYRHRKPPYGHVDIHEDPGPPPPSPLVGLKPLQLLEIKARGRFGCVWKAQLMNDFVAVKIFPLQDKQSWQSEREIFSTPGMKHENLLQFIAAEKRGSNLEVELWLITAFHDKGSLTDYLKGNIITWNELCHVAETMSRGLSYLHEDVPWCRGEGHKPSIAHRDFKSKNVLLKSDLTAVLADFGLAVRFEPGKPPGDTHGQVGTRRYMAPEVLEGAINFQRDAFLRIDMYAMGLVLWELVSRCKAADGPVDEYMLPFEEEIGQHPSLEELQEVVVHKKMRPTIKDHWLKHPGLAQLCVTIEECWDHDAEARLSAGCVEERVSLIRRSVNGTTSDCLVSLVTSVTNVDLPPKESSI
# LIMK1, sequence (P53667 whole entry): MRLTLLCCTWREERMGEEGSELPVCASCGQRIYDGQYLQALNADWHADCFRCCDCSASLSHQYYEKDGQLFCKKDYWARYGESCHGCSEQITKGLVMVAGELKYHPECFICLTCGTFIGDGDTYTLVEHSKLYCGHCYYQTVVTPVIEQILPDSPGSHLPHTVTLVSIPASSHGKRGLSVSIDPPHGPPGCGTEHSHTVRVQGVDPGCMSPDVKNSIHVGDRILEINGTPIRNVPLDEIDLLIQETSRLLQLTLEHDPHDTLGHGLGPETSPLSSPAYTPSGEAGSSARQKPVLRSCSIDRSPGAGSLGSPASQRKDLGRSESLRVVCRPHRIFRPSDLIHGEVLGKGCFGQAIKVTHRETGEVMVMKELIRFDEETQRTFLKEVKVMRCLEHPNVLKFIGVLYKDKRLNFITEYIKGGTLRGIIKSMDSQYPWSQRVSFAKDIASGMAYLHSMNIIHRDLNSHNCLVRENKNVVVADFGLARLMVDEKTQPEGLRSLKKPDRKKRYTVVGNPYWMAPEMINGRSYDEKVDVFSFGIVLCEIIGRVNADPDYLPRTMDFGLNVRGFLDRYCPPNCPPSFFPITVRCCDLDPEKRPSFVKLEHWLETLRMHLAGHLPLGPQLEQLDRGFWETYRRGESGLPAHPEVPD
# STK16 (PKL12), sequence (O75716 whole entry): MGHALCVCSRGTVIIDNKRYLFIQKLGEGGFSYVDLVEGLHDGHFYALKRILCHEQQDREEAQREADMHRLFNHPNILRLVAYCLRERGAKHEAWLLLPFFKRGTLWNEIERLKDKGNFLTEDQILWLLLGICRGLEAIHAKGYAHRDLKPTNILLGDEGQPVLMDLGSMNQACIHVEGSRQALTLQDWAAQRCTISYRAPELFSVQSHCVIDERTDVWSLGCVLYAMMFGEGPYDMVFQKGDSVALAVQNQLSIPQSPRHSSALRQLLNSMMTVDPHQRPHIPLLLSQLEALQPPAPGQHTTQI
compound,measurement,setting,value
"COc1ccc2nc3cc(Cl)ccc3c(Nc3cc(CN4CCCC4)c(O)c(CN4CCCC4)c3)c2n1 [Pyronaridine, 4-[(7-Chloro-2-methoxybenzo[b][1,5]naphthyridin-10-yl)amino]-2,6-bis(1-pyrrolidinylmethyl)phenol phosphate (1:4)]",inhibition at 1 µM,STK16 (PKL12),5%
same,inhibition at 1 µM,ACVR2B,8%
same,inhibition at 1 µM,LIMK1,-7%
same,inhibition at 1 µM,SLK,-1%
same,inhibition at 1 µM,MAP4K3 (GLK),1%
same,inhibition at 1 µM,PKMYT1,1%
same,inhibition at 1 µM,CDK14 (PFTK1)/cyclin Y,14%
same,inhibition at 1 µM,ACVR1 (ALK2) R206H,2%
same,inhibition at 1 µM,TAOK3 (JIK),-2%
same,inhibition at 1 µM,ERN1,6%
same,inhibition at 1 µM,NUAK2,2%
same,inhibition at 1 µM,CDK2/cyclin A1,5%
same,inhibition at 1 µM,ZAK,0%
same,inhibition at 1 µM,MAP3K2 (MEKK2),7%
same,inhibition at 1 µM,WEE1,10%
same,inhibition at 1 µM,MYO3B (MYO3 beta),5%
same,inhibition at 1 µM,MAP3K3 (MEKK3),-3%
same,inhibition at 1 µM,AMPK (A2/B2/G2),3%
same,inhibition at 1 µM,ALK R1275Q,6%
same,inhibition at 1 µM,STK32C (YANK3),1%
same,inhibition at 1 µM,CAMKK1 (CAMKKA),15%
same,inhibition at 1 µM,ABL1 H396P,7%
same,inhibition at 1 µM,RET V804M,-1%
same,inhibition at 1 µM,DYRK2,-7%
same,inhibition at 1 µM,ULK2,2%
same,inhibition at 1 µM,CDK9/cyclin K,5%
same,inhibition at 1 µM,CDC7/DBF4,-6%
same,inhibition at 1 µM,MYLK (MLCK),4%
same,inhibition at 1 µM,ERN2,6%
